We go through one substance from patent publication US8569242B2, “Method of treating degenerative disorders of the nervous system” (The Regents of the University of California, priority 2005, dated 2013).

Experiment [1] deals with PLP139-151 EAE in SJL/J mice. Put plainly: Remitting-relapsing PLP139-151 EAE, intranasal γ^377-395 peptide after first paralytic episode. Type of experiment: in vivo, mouse. The procedure: (§1) Induction of EAE. EAE was induced in 6 week old female SJL/J or C57BL/6 mice by subcutaneous immunization with 150 μg PLP139-151 (HSLGKWLGHPDKF) (SEQ ID NO: 5). American Peptide Company and Azco Pharmchem, San Jose, Calif.) or 50 μg MOG35-55 ([…]) (SEQ ID NO: 6), Sigma-Aldrich, St. Louis, Mo.) in complete Freund's adjuvant (Sigma-Aldrich, St. Louis, Mo.) supplemented with […] heat inactivated mycobacterium tuberculosis H37Ra (Difco Laboratories, Detroit, Mich.). Mice were injected intravenously with 200 ng pertussis toxin (Sigma-Aldrich, St. Louis, Mo.) on days 0 and 2 of the immunization. Mice were scored daily. 0: no symptoms, 1: loss of tail tone, 2: ataxia, 3: hindlimb paralysis, 4: hindlimb and forelimb paralysis, 5: moribund Data are represented as the mean clinical score and are mean±SEM. Statistical calculations were made by using Student's t test.
Intranasal γ^377-395 peptide administration. Fibrinogen γ^377-395 peptide (YSMKETTMKIIPFNRLSIG) (SEQ ID NO: 2), Azco Pharmchem, San Jose, Calif.) was resuspended in 0.9% NaCl at a concentration of 3 mg/mL. Peptides were aliquoted as single doses and stored at […]. Mice were administered 5 μL of peptide or 0.9% NaCI, as a control, in each nare daily using a P10 micropipettor (Gilson, Middleton, Wis.) beginning after the peak of the first paralytic episode.
(§2) Histopathology. Histopathologic analysis and quantification of inflammation and demyelination in mouse tissue was performed on cryostat or paraffin sections as described (57). Sections were stained with luxol fast blue and nuclear red. Spinal cord sections were fixed with 2% PFA for 10 minutes at 4° C. and immunostained with a sheep anti-fibrinogen antibody (1:200, US Biological, Swampscott, Mass.), rat anti-CD11b (1:5, Chemicon), von Willebrand Factor (1:1000, Dakocytomation, Glostrup, Denmark), iNOS (polyclonal Chemicon, Temecula, Calif., 1:750), Mac-3 (rat-anti-mouse, Pharmingen, San Diego, Calif., 1:200), CNPase (monoclonal, Sternberger monoclonals, Lutherville, Md., 1:2000). For human MS, paraffin embedded material was obtained from the Archives of the Center for Brain Research, Medical University of Vienna. Double immunofluorescence was performed with antibodies against CD68 and fibrin. Images were collected using an Axioplan 2 Zeiss microscope with an Axiocam HRc camera or were processed for confocal microscopy using Olympus and Zeiss confocal microscopes.
(§3) Rotarod behavior test. The rotarod assay was performed on a TSE accelerating Rotarod apparatus (TSE Technical and Scientific Equipment GmbH) as described (58). Rotarod assays were conducted with a 300 second maximum time limit and means were collected for at least three trials. Statistical calculations were made by using Students t test.

The target in another experiment is Mac-1 (Homo sapiens, UniProt P11215). The note with it: from cited biochemical studies; cited from earlier work.
Experiment [2] has as its system Mac-1 overexpressing cells. The note with it: reference (37); cited from earlier work.
Another experiment deals with Akt. The experiment is described as follows: Akt phosphorylation immunoblot in microglia. Type of experiment: cell-based, mouse. The conditions noted are these: for effect on fibrin-mediated phosphorylation of Akt: microglia on fibrinogen plus peptide; for effect on LPS-mediated phosphorylation of Akt: microglia with LPS plus peptide. The procedure:
Immunoblots. Western blots were performed using standard protocols (55). Microglia were serum-starved overnight and plated on fibrinogen or with LPS for 6 hours. Lysates were electrophoresed on 4-12% gradient SDS-PAGE gels and probed with phospho and total Akt antibodies (1:1000, Cell Signaling, Beverly, Mass.). RhoA activation was performed as described (60). Briefly, 2×107 microglia were plated on fibrinogen for 6 hours or with LPS for 10 minutes. Cell lysates were incubated with GST-Rhotekin agarose beads (kindly provided by Dr. Joan Heller Brown, UCSD) for 45 minutes at 4° C. The beads were washed, resuspended in Laemmli sample buffer, and electophoresed on a 15% SDS-PAGE gel. Activated and total Rho were detected with mouse anti-RhoA (1:500, Santa Cruz Biotechnology, Santa Cruz, Calif.). Densitometry was performed using the NIH Scion Image software using three blots from three separate experiments.

For experiment [3], the system named is PLP139-151 EAE in SJL/J mice. Put plainly: PLP139-151 EAE after vaccination with γ^377-395 peptide. Type of experiment: in vivo, mouse. As for the experimental part: as §1
Fibrinogen γ^377-395 peptide vaccination. Vaccination was performed as described (56) with the following modifications. Five week old female SJL/J mice were immunized with 200 μg fibrinogen γ^377-395 peptide (YSMKETTMKIIPFNRLSIG) (SEQ ID NO: 2), Azco Pharmchem, San Jose, Calif.) emulsified with an equal volume of incomplete freund's adjuvant (Sigma-Aldrich, St. Louis, Mo.). Mice were immunized four times in alternating rear flanks over the course of two weeks. Control animals were immunized with incomplete Freund's adjuvant.
as §2, §3

Setting [4] is: 30 μg i.n. daily, day 30 after immunization.

With “tyr-ser-met-lys-lys-thr-thr-met-lys-ile-ile-pro-phe-asn-arg-leu-thr-ile-gly (YSMKKTTMKIIPFNRLTIG) (listed as Homo sapiens) [γ^377-395 peptide]”, in experiment [1] (30 μg i.n. daily, after the first relapse on day 29), the “increase of motor functions vs control mice” value is on record as 1.4 fold. In addition, in experiment [1] (setting [4]), the “reduction in Mac-3 (microglia/macrophage marker) immunostaining” value was determined as 2 fold and the “reduction in iNOS immunostaining” value was determined as 4.2 fold. Besides, the “relapse of paralysis (clinical score)” value in experiment [1] (30 μg intranasally daily after first paralytic episode, n=14 vs control n=13) is listed as “did not show a relapse”. Further, in experiment [1] (peptide-treated vs control), the T cell infiltration entry is on record as “no major differences”. The “blocking of fibrin(ogen) binding to Mac-1 (CD11b)” value with Mac-1 was “blocks”. Moreover, the “concentration shown to inhibit adhesion of Mac-1 overexpressing cells to immobilized fibrinogen” value in experiment [2] was 200 µM. In addition, in the experiment on Akt, the “effect on fibrin-mediated phosphorylation of Akt” value was “specifically inhibit” and the “effect on LPS-mediated phosphorylation of Akt” value is listed as “not LPS-mediated”. Also, in the experiment with Akt (listed as γ^377-395), the “effect on fibrin-mediated phosphorylation of Akt” value is given as “blocks” and the “effect on LPS-mediated phosphorylation of Akt” value is given as “unaffected”. For the same substance, the “vaccinated mice that developed EAE” value in experiment [3] (8/15, all control mice 15/15, 200 μg peptide in IFA four times before EAE induction) worked out at 53%. Moreover, the “rotarod: increase in motor strength and coordination vs control mice” value in experiment [3] (vaccinated mice) amounted to 76%. The “histopathology index, brain” value in experiment [3] (vaccinated mice, control 2.3±1) was 1.5±2. Moreover, the “histopathology index, spinal cord” value in experiment [3] (vaccinated mice, control 12±5.2) came out at 6.5±5.9. The same substance displayed an average clinical score in experiment [3] (vaccinated mice, control group 2.5, scale 0-5) of 1.1.
